Source: patent US9351941B2, “Radiofrequency-induced synchronization of in situ hyperthermia and chemotherapy via magnetic-nanoconjugates” (National Cheng Kung University, priority 2012, dated 2016)

Test system: tumor
Assay: targeting hyperthermia and chemotherapy through tail vein injection with RF treatment (FIG. 8)
Format: in vivo, C3H/HeN mice
Details: 5-FU injection alone, 770 nM, equivalent to total nanoparticle loaded drugs
Description: In addition, in an embodiment according to the present invention, targeting hyperthermia and chemotherapy through tail vein injection of the 5-FU-loaded Fe3O4@anti-HER2 nanoparticle (500 μg/mL) in a serial single daily dose for four consecutive days are evaluated. RF treatments are given 24 h after the nanoparticle had been injected. […] This indicates nanoparticle accumulation within tumor dissipate sufficient heat to generate hyperthermia effect.
Groups of male C3H/HeN mice 6-8 weeks old in this experiment were given a tail-vein injection of 200 μL 5-FU-loaded Fe3O4@anti-HER2 magnetic nanoparticle in PBS ([…]) or of PBS alone. One group of mice was sacrificed 24 h after the tail-vein injection. The rest of the mice were given 15 min RF treatment 24 h after the tail-vein injection. Twenty-four hours after the RF treatment, the mice were overdosed with the anesthetics ketamine and xylazine (8.7 mg/100 g and 1.3 mg/100 g), and their major organs (brain, heart, lungs, spleen, liver, kidneys) and blood were collected. Each organ was homogenized and dissolved in nitro-hydrochloric acid. The sample solutions were continuously shaken for two days to ensure Fe dissociation. All samples were filtered before analyzed using atomic absorption spectrometer (Solar M6 series; Unicam, UK). […]

With `O=c1[nH]cc(F)c(=O)[nH]1` [5-FU, 5-fluorouracil] the tumor growth was “unable to suppress tumor growth”.
